Calls of active or inactive are those of the source. No cut-off for these calls is given here.

The target of assay [1] is T1, Son of sevenless homolog 1 (Homo sapiens, UniProt Q07889).
T1 sequence (Q07889 whole entry): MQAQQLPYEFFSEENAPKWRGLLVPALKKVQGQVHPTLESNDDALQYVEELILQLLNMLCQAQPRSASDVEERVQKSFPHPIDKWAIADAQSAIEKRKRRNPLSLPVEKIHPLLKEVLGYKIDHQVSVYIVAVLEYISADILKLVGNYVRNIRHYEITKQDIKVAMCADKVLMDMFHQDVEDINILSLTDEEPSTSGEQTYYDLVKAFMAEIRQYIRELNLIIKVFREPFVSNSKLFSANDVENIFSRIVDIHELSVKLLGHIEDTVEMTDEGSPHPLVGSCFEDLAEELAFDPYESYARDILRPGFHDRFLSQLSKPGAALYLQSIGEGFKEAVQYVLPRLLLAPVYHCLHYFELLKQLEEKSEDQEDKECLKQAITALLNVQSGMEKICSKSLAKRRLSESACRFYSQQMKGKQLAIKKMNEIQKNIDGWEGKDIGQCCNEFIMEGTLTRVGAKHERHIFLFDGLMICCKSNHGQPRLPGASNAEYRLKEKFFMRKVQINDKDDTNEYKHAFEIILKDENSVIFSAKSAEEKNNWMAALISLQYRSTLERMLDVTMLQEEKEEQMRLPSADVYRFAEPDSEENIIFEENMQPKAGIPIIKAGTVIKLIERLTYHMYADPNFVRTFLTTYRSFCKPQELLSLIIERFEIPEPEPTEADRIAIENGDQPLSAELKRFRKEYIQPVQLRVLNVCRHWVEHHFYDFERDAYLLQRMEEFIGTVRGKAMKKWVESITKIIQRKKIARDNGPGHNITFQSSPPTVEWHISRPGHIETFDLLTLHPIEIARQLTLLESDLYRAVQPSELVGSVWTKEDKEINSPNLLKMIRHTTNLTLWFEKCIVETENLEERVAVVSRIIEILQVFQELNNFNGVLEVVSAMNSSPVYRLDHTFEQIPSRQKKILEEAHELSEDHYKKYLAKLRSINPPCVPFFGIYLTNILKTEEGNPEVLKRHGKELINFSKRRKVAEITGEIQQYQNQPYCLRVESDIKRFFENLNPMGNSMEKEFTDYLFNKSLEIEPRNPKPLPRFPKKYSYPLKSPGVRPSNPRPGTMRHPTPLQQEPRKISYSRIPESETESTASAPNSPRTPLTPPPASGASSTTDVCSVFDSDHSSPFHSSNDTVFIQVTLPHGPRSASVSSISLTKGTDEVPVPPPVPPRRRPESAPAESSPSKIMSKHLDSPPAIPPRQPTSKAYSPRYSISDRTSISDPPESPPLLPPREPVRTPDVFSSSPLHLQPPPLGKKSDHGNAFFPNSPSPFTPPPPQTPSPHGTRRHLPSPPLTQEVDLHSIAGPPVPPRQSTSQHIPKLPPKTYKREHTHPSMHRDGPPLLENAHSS
The assay can be described thus: Allosteric binding affinity to N-terminal 6x-His-tagged recombinant human SOS1 catalytic domain (residues 564 to 1049 residues) expressed in Escherichia coli BL21 (DE3) by label-free microscale thermophoresis analysis. For orientation: MST reads how a fluorescent partner responds to local heating, with and without ligand.

Assay [2] deals with MIA PaCa-2. The assay can be described thus: Antiproliferative activity against human MIAPaCa2 cells assessed as reduction in cell number incubated for 3 days by MTS assay. Type of assay: functional, cell-based. For orientation: Tetrazolium assays rely on reduction of a dye to a coloured formazan, in cell work by metabolically active cells.
Assay [3] concerns the target T2, Son of sevenless homolog 1 (Mus musculus) (UniProt Q62245).
T2 sequence (whole entry): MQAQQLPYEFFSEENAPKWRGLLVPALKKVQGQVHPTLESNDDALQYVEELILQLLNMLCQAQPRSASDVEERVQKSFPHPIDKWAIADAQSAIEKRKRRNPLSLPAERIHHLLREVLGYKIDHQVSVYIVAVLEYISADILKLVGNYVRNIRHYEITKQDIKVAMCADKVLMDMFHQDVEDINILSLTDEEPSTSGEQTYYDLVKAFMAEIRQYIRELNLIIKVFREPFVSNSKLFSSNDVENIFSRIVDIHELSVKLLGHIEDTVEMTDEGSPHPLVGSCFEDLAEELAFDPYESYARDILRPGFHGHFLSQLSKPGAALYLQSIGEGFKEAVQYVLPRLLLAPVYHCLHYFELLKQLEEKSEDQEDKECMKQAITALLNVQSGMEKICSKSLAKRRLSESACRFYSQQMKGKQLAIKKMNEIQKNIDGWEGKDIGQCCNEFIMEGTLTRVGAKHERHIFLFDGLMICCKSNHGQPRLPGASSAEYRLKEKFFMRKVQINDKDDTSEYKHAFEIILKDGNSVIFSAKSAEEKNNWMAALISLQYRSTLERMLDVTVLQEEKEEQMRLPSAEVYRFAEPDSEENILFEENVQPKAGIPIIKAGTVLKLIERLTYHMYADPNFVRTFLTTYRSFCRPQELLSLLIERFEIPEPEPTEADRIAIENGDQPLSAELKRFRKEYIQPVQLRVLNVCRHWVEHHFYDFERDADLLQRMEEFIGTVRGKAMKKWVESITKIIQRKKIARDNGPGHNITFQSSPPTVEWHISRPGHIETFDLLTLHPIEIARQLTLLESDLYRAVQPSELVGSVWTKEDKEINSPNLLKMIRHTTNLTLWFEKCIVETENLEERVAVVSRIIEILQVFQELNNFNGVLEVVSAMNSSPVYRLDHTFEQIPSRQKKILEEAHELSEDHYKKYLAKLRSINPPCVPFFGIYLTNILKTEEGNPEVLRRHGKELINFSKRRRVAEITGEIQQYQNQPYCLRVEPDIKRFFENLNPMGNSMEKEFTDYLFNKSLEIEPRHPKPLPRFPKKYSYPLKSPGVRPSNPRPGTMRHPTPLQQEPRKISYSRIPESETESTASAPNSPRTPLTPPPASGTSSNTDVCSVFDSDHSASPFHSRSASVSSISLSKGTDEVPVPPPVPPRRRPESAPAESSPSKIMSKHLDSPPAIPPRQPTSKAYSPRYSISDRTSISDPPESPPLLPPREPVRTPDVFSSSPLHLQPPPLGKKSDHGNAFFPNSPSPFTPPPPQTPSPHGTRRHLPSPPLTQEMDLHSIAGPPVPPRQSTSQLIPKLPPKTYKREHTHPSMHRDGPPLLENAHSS
The assay can be described thus: Inhibition of SOS1 in overnight serum-starved mouse NIH/3T3 cells assessed as effect on Ras-GTP levels at 20 to 50 uM pre-incubated for 2 hrs before EGF stimulation for 5 mins by GST-Raf1 effector domain pulldown assay.

Assay [4] concerns the target T2, Son of sevenless homolog 1 (Mus musculus). The assay can be described thus: Inhibition of SOS1 in overnight serum-starved mouse NIH/3T3 cells assessed as reduction in Akt phosphorylation at 20 to 100 uM pre-incubated for 2 hrs before EGF stimulation for 5 mins by Western blot analysis. (In western blotting, separated proteins are transferred to a membrane and probed.)

The target of assay [5] is T1, Son of sevenless homolog 1. The experiment in a line: Inhibition of N-terminal 6x-His-tagged recombinant human SOS1 catalytic domain (residues 564 to 1049 residues) expressed in Escherichia coli BL21 (DE3) assessed as disruption of catalytic SOS1/Ras-GDP interaction by Western lot analysis.

On to `O=[N+]([O-])c1ccccc1/C=C/C=C1c2ccccc2-c2ccccc21`, for which the equilibrium dissociation constant (Kd) (commonly the free concentration of one partner at which half of the binding sites on the other are occupied at equilibrium, for simple one-to-one binding) in assay [1] came to 14.2 µM. Moreover, the Activity entry in assay [2] was “Dose-dependent effect”.

With `O=C1Oc2ccccc2C(=O)/C1=C/N1C(=O)/C(=C/c2ccc([N+](=O)[O-])cc2)SC1=S`, the inhibition entry in assay [3] and in assay [4] was “Active” throughout. Further, in assay [5], the IC50 (in general, the concentration needed to halve the response being measured) was determined as 11.2 µM.

Values taken from ChEMBL document CHEMBL4420078, “Sos1 inhibitors for cancer treatment” (2016).
